According to patent publication US8828401B2, “Cytotoxic peptides and antibody drug conjugates thereof” (Pfizer Inc., priority 2011, dated 2014):
Like-named read-outs stand apart in the source and are kept apart here. Starred links: 1 amine or outer side, 2 acyl side, 3 side chain; linkers in the order of their positions; H or OH if unused. Non-standard residues stand in square brackets, D forms with d. Residues, ends and D or L forms follow the SMILES beside them. *: point of attachment. Dolaproine = CO[C@@H]([C@@H]1CCCN1)[C@@H](C)C(=O)O; X5 = O=C([C@@H](N[*:1])C1(c2ccccc2)CC1)[*:2]; X2 = O=C([C@H](N[*:1])C1(c2ccccc2)CC1)[*:2]; Dil = CC[C@H](C)[C@H](NC)[C@@H](CC(=O)O)OC; Doe = c1ccc(C[C@H](N*)c2nccs2)cc1; Ac4c(3-oxa) = NC1(C(=O)O)COC1; NHPhenethyl = c1ccc(CCN*)cc1; αMeP = C[C@@]1(C(=O)O)CCCN1; NMeAib = CNC(C)(C)C(=O)O; Ac5c = NC1(C(=O)O)CCCC1; NH(propargyl) = C#CCN*; Aib = CC(C)(N)C(=O)O; OtBu = CC(C)(C)O*

Assays:
Assay in all cases: In vitro cell assay, MTS cell viability 96 hours after treatment
Format in all cases: cell-based
[1] = test system: MDA-MB-361-DYT2 (breast cancer); conditions: read-out: MDA-MB-361-DYT2 GMEAN IC50, MDA-MB-361-DYT2 cells; geometric mean; cytotoxic peptides
In short: (§1)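 Cells are exposed to 3-fold dilution series (10 points, duplicate wells) of ADC or free compound lacking antibody. After 96 hours, an MTS assay quantifies viability relative to untreated cells.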

N87 (gastric cancer) = conditions: read-out: N87 GMEAN IC50, N87 cells; geometric mean; cytotoxic peptides
In short: as §1

BT474 (breast cancer) = conditions: geometric mean, cytotoxic peptides, read-out: BT474 GMEAN IC50
In short: as §1

[2] = Homo sapiens, BT-474, BT474 cells

Compound | IC50 [1] [nM] | IC50 (N87 (gastric cancer)) [nM] | IC50 (BT474 (breast cancer); BT474 cells) [nM] | IC50 (BT474 (breast cancer); [2]) [nM]
CC[C@H](C)[C@@H]([C@@H](CC(=O)N1CCC[C@H]1[C@H](OC)[C@@H](C)C(=O)N[C@@H](Cc1ccccc1)C(=O)OC)OC)N(C)C(=O)[C@@H](NC(=O)[C@@]1(F)CCNC1)C(C)C [#173, methyl N-{(2R,3R)-3-[(2S)-1-{(3R,4S,5S)-4-[(N-{[(3R)-3-fluoropyrrolidin-3-yl]carbonyl}-L-valyl)(methyl)amino]-3-methoxy-5-methylheptanoyl}pyrrolidin-2-yl]-3-methoxy-2-methylpropanoyl}-L-phenylalaninate] | 0.067 | 0.099 | 0.088 | –
CC[C@H](C)[C@@H]([C@@H](CC(=O)N1CCC[C@H]1[C@H](OC)[C@@H](C)C(=O)N[C@@H](C(=O)O)C1(c2ccccc2)CC1)OC)N(C)C(=O)[C@@H](NC(=O)C(C)(C)N)C(C)C [#230] (H-[Aib]V[Dil][Dolaproine][X2]-OH) | 70.2 | 89.1 | – | ≥ 100
CC[C@H](C)[C@@H]([C@@H](CC(=O)N1CCC[C@H]1[C@H](OC)[C@@H](C)C(=O)N[C@@H](Cc1ccccc1)C(=O)OC)OC)N(C)C(=O)[C@@H](NC(=O)C(C)(C)NC)C(C)C [#226] (H-[NMeAib]V[Dil][Dolaproine]F-OMe) | 0.106 | 0.478 | – | 0.118
CC[C@H](C)[C@@H]([C@@H](CC(=O)N1CCC[C@H]1[C@H](OC)[C@@H](C)C(=S)N[C@@H](Cc1ccccc1)C(=O)O)OC)N(C)C(=O)[C@@H](NC(=O)[C@@H](NC)C(C)C)C(C)C [#41, N-methyl-L-valyl-N-[(3R,4S,5S)-1-{(2S)-2-[(1R,2R)-3-{[(1S)-1-carboxy-2-phenylethyl]amino}-1-methoxy-2-methyl-3-thioxopropyl]pyrrolidin-1-yl}-3-methoxy-5-methyl-1-oxoheptan-4-yl]-N-methyl-L-valinamide] | 51.8 | 33.2 | – | 29.7
C#CCNC(=O)[C@H](Cc1ccccc1)NC(=O)[C@H](C)[C@@H](OC)[C@@H]1CCCN1C(=O)C[C@@H](OC)[C@H]([C@@H](C)CC)N(C)C(=O)[C@@H](NC(=O)C(C)(C)NC)C(C)C [#241] (H-[NMeAib]V[Dil][Dolaproine]F-{NH(propargyl)}) | 0.494 | 0.388 | – | 0.364
CC[C@H](C)[C@@H]([C@@H](CC(=O)N1CCC[C@H]1[C@H](OC)[C@@H](C)C(=O)N[C@@H](Cc1ccccc1)c1nccs1)OC)N(C)C(=O)[C@@H](NC(=O)C1(N)CCCC1)C(C)C [#47, N^2-[(1-aminocyclopentyl)carbonyl]-N-[(3R,4S,5S)-3-methoxy-1-{(2S)-2-[(1R,2R)-1-methoxy-2-methyl-3-oxo-3-{[(1S)-2-phenyl-1-(1,3-thiazol-2-yl)ethyl]amino}propyl]pyrrolidin-1-yl}-5-methyl-1-oxoheptan-4-yl]-N-methyl-L-valinamide] (H-[Ac5c]V[Dil][Dolaproine]-Doe) | 0.317 | < 0.256 | – | < 0.244
CC[C@H](C)[C@@H]([C@@H](CC(=O)N1CCC[C@H]1[C@H](OC)[C@@H](C)C(=O)N[C@@H](Cc1ccccc1)C(=O)OC)OC)N(C)C(=O)[C@@H](NC(=O)[C@]1(C)CCCCN1)C(C)C (single isomer, unassigned) [#158] | 0.1 | 0.115 | – | 0.082
CC[C@H](C)[C@@H]([C@@H](CC(=O)N1CCC[C@H]1[C@H](OC)[C@@H](C)C(=S)N[C@@H](Cc1ccccc1)c1nccs1)OC)N(C)C(=O)[C@@H](NC(=O)C(C)(C)NC)C(C)C [#84, N,2-dimethylalanyl-N-[(3R,4S,5S)-3-methoxy-1-{(2S)-2-[(1R,2R)-1-methoxy-2-methyl-3-{[(1S)-2-phenyl-1-(1,3-thiazol-2-yl)ethyl]amino}-3-thioxopropyl]pyrrolidin-1-yl}-5-methyl-1-oxoheptan-4-yl]-N-methyl-L-valinamide] | 0.686 | 0.426 | – | 0.246
CC[C@H](C)[C@@H]([C@@H](CC(=O)N1CCC[C@H]1[C@H](OC)[C@@H](C)C(=O)N[C@@H](Cc1ccccc1)C(=O)O)OC)N(C)C(=O)[C@@H](NC(=O)C(C)(C)NC)C(C)C [#115, N,2-dimethylalanyl-N-{(1S,2R)-4-{(2S)-2-[(1R,2R)-3-{[(1S)-1-carboxy-2-phenylethyl]amino}-1-methoxy-2-methyl-3-oxopropyl]pyrrolidin-1-yl}-2-methoxy-1-[(1S)-1-methylpropyl]-4-oxobutyl}-N-methyl-L-valinamide] (H-[NMeAib]V[Dil][Dolaproine]F-OH) | 19.9 | 50.3 | – | 31.5
CC[C@H](C)[C@@H]([C@@H](CC(=O)N1CCC[C@H]1[C@H](OC)[C@@H](C)C(=O)NCCc1ccccc1)OC)N(C)C(=O)[C@@H](NC(=O)C(C)(C)N)C(C)C [#56, 2-methylalanyl-N-{(3R,4S,5S)-3-methoxy-1-[(2S)-2-{(1R,2R)-1-methoxy-2-methyl-3-oxo-3-[(2-phenylethyl)amino]propyl}pyrrolidin-1-yl]-5-methyl-1-oxoheptan-4-yl}-N-methyl-L-valinamide] (H-[Aib]V[Dil][Dolaproine]-NHPhenethyl) | 0.766 | 1.26 | – | 0.316
CC[C@H](C)[C@@H]([C@@H](CC(=O)N1CCC[C@H]1[C@H](OC)[C@@H](C)C(=O)NCCc1ccccc1)OC)N(C)C(=O)[C@@H](NC(=O)C1(N)COC1)C(C)C [#75, N^2-[(3-aminooxetan-3-yl)carbonyl]-N-{(3R,4S,5S)-3-methoxy-1-[(2S)-2-{(1R,2R)-1-methoxy-2-methyl-3-oxo-3-[(2-phenylethyl)amino]propyl}pyrrolidin-1-yl]-5-methyl-1-oxoheptan-4-yl}-N-methyl-L-valinamide] (H-[Ac4c(3-oxa)]V[Dil][Dolaproine]-NHPhenethyl) | > 100 | > 100 | – | > 100
CC[C@H](C)[C@@H]([C@@H](CC(=O)N1CCC[C@H]1[C@H](OC)[C@@H](C)C(=O)N[C@@H](Cc1c[nH]cn1)C(=O)OC)OC)N(C)C(=O)[C@@H](NC(=O)C(C)(C)NC)C(C)C [#242] (H-[NMeAib]V[Dil][Dolaproine]H-OMe) | 34.5 | 41.3 | – | 32.3
CC[C@H](C)[C@@H]([C@@H](CC(=O)N1CCC[C@H]1[C@H](OC)[C@@H](C)C(=O)N[C@H](C(=O)OC)C1(c2ccccc2)CC1)OC)N(C)C(=O)[C@@H](NC(=O)C(C)(C)N)C(C)C [#223] (H-[Aib]V[Dil][Dolaproine][X5]-OMe) | 10.9 | 13 | – | 7.59
CC[C@H](C)[C@@H]([C@@H](CC(=O)N1CCC[C@H]1[C@H](OC)[C@@H](C)C(=O)N[C@@H](Cc1ccccc1)C(=O)OC(C)(C)C)OC)N(C)C(=O)[C@@H](NC(=O)C(C)(C)N)C(C)C [#123, 2-methylalanyl-N-[(3R,4S,5S)-1-{(2S)-2-[(1R,2R)-3-{[(2S)-1-tert-butoxy-1-oxo-3-phenylpropan-2-yl]amino}-1-methoxy-2-methyl-3-oxopropyl]pyrrolidin-1-yl}-3-methoxy-5-methyl-1-oxoheptan-4-yl]-N-methyl-L-valinamide] (H-[Aib]V[Dil][Dolaproine]F-OtBu) | 0.129 | 0.089 | – | 0.125
CC[C@H](C)[C@@H]([C@@H](CC(=O)N1CCC[C@H]1[C@H](OC)[C@@H](C)C(=S)N[C@@H](Cc1ccccc1)c1nccs1)OC)N(C)C(=O)[C@@H](NC(=O)C(C)(C)N)C(C)C [#34, 2-methylalanyl-N-[(3R,4S,5S)-3-methoxy-1-{(2S)-2-[(1R,2R)-1-methoxy-2-methyl-3-{[(1S)-2-phenyl-1-(1,3-thiazol-2-yl)ethyl]amino}-3-thioxopropyl]pyrrolidin-1-yl}-5-methyl-1-oxoheptan-4-yl]-N-methyl-L-valinamide] | 1.12 | 1.95 | – | 0.211
CC[C@H](C)[C@@H]([C@@H](CC(=O)N1CCC[C@H]1[C@H](OC)[C@@H](C)C(=O)N[C@@H](Cc1ccccc1)C(=O)O)OC)N(C)C(=O)[C@@H](NC(=O)[C@]1(C)CCCN1)C(C)C [#118, 2-methyl-L-prolyl-N-[(3R,4S,5S)-1-{(2S)-2-[(1R,2R)-3-{[(1S)-1-carboxy-2-phenylethyl]amino}-1-methoxy-2-methyl-3-oxopropyl]pyrrolidin-1-yl}-3-methoxy-5-methyl-1-oxoheptan-4-yl]-N-methyl-L-valinamide] (H-[αMeP]V[Dil][Dolaproine]F-OH) | ≥ 100 | ≥ 100 | – | ≥ 100
CC[C@H](C)[C@@H]([C@@H](CC(=O)N1CCC[C@H]1[C@H](OC)[C@@H](C)C(=S)N[C@@H](Cc1ccccc1)C(=O)O)OC)N(C)C(=O)[C@@H](NC(=O)C(C)(C)N)C(C)C [#44, 2-methylalanyl-N-[(3R,4S,5S)-1-{(2S)-2-[(1R,2R)-3-{[(1S)-1-carboxy-2-phenylethyl]amino}-1-methoxy-2-methyl-3-thioxopropyl]pyrrolidin-1-yl}-3-methoxy-5-methyl-1-oxoheptan-4-yl]-N-methyl-L-valinamide] | > 16.4 | 14.6 | – | 7.12
CC[C@H](C)[C@@H]([C@@H](CC(=O)N1CCC[C@H]1[C@H](OC)[C@@H](C)C(=O)N[C@H](Cc1ccccc1)C(=O)O)OC)N(C)C(=O)[C@@H](NC(=O)C(C)(C)NC)C(C)C [#244] (H-[NMeAib]V[Dil][Dolaproine][dF]-OH) | ≥ 100 | ≥ 100 | – | 73.1
